From patent US9499823B2, “Constructs expressing chimeric receptors and use thereof for the controlled activation of defence response to pathogens in plants” (priority 2009, dated 2016)

Tests used:
[1] = tested on: agroinfiltrated Arabidopsis thaliana Col-0 leaves; assay: Receptor internalization: decrease of GFP fluorescence by confocal microscopy in agroinfiltrated Arabidopsis Col-0 leaves; format: cell-based; settings: for decrease of plasma membrane-associated fluorescence signal: explants at 2 dpi; for fluorescence variation upon treatment with elfl8: 10 μM elfl8, 30 min, EFR up to 1 mM elicitor (data not shown); for fluorescence variation upon treatment with OGs: up to 30 min, no EDTA; for decrease of fluorescence from the cell membrane: OGs 100 μg/ml 30 min pre-stimulation, then 5 mM EDTA
Description: PCR templates are shown in bold. Primers listed in Table 1 are shown in capital letters. Stable transgenic lines were generated using the standard A. tumefaciens-mediated gene transfer procedure of inflorescence infiltration (Bent et al., 2006). Independent transformed plant pools were kept separate for the selection of independent transgenic lines based on their phosphinotrycin resistance and leaves GFP fluorescence. Tobacco and Arabidopsis transient transgenic lines were prepared by infiltrating with Agrobacterium tumefaciens carrying the individual constructs, as described by Reca (2008).
The GFP-dependent fluorescence was monitored from 2 to 4 days post infection in cells of the lower epidermis. Pieces of leaf were randomly cut from the infected area and mounted in water or supplemented with elicitors for microscopic observations. Flg22 and elfl8 were used at 10 μM while oligosaccharides were used at 100 μg/mL. Materials were analyzed using a Leica DM IRE epifluorescence microscope equipped with a digital cooled camera (DFC350FX R2; Leica). GFP fluorescence was excited with a 488-nm laser line, and emitted fluorescence was collected at 543-nm. The Leica Confocal Software and Adobe Photoshop 5.0 were used for post-acquisition image processing. All samples were imaged with the 40× or 100× oil objectives. Pictures were taken in Kahlman frame giving an average of 16 scans for the dynamics of internalization and 4 scans for the cellular localizations. […]
The dynamics of fluorescence localization upon treatment with elicitors was then studied. Whereas endocytosis of surface receptors upon ligand binding often occurs in animals (Warren and Landgraf 2006), this mechanism in plants has emerged only recently (Geldner & Robatzek 2008) and, so far, FLS2 is the only receptor involved in plant immunity shown to undergo endocytosis upon the specific stimulation with flg22 (Robatzek et al., 2006). The authors tested the effect of flg22 and elf 18, i.e. the peptides specifically recognized by FLS2 and EFR respectively, and oligogalacturonides with a degree of polymerization between 10 and 16 (OGs), which act as general elicitors of defense responses in several plants. Explants from agroinfiltrated Arabidopsis leaves at 2 dpi were treated with elicitors and then subjected to confocal microscopy analysis. […] Instead, when eJMC-expressing explants were stimulated with flg22, the fluorescent signal decreased by 25% and 40% after 20 min and 30 min, respectively (FIG. 3B).
The first chimeric receptor, indicated as WEG, comprised the WAK1 ectodomain fused to the TM-iJM-kinase portion of EFR and was designed to test the ability of the WAK1 ectodomain to perceive OGs and transmit the signal inside the cell. […] Both WEG and EWAK as well as WAK1 were fused to GFP and used in agroinfiltration experiments (FIG. 5A). […] Western-blot analysis using GFP-specific antibodies on proteins from IWF and microsomal fractions prepared from infiltrated leaves confirmed the plasma membrane localization of both fluorescent chimeras (FIG. 5D). The effect of OGs on the internalization of WEG was followed in agroinfiltrated Arabidopsis Col-0 leaves. […] This might be due to the inability of WEG to uncouple its ectodomain from pectins, since it is known that WAK1 strongly binds to pectin and only denaturing treatments allow its separation from cell wall (He et al., 1996). On the other hand, affinity studies have shown that WAK1 interact with cell wall pectins that are in a Ca^2+-induced conformation (i.e. the structures called “egg boxes”) and that the interaction is disrupted by adding a chelating agent such as EDTA (Decreux et al., 2005; Cabrera et al., 2008). The authors therefore tested whether OG-induced internalization of WEG occurred in the presence of 5 mM EDTA. WEG-expressing agroinfiltrated leaves were syringe-infiltrated with OGs and after 30 min the tissues were mounted in the presence of EDTA for confocal microscopy analysis. […]

[2] = tested on: agroinfiltrated leaves of N. tabacum ecotype SR1; assay: Receptor internalization in agroinfiltrated tobacco leaves; format: cell-based, Nicotiana tabacum
Description: E) Relative variation of fluorescence in agroinfiltrated tobacco leaves expressing EFR, FLS2, eJMC and TMC and treated with 10 μM elfl8 or 10 μM flg22 for 30 min.
The GFP-dependent fluorescence was monitored from 2 to 4 days post infection in cells of the lower epidermis. Pieces of leaf were randomly cut from the infected area and mounted in water or supplemented with elicitors for microscopic observations. Flg22 and elfl8 were used at 10 μM while oligosaccharides were used at 100 μg/mL. Materials were analyzed using a Leica DM IRE epifluorescence microscope equipped with a digital cooled camera (DFC350FX R2; Leica). GFP fluorescence was excited with a 488-nm laser line, and emitted fluorescence was collected at 543-nm. The Leica Confocal Software and Adobe Photoshop 5.0 were used for post-acquisition image processing. All samples were imaged with the 40× or 100× oil objectives. Pictures were taken in Kahlman frame giving an average of 16 scans for the dynamics of internalization and 4 scans for the cellular localizations.
The behaviour of TMC and eJMC upon treatment with flg22 and elfl8 was also analysed in agroinfiltrated leaves of N. tabacum ecotype SR1 and compared to that of EFR and FLS2. […] Instead, in the eJMC expressing plants fluorescence decreased within 10-30 min after stimulation with flg22, at an extent similar to that observed in Arabidopsis, i.e. by 25% and 35% after 20 min and 30 min, respectively (FIG. 3E).

[3] = 10 μM flg22, after 20 min of stimulation
[4] = 10 μM flg22, after 30 min of stimulation

FLS2 [reference compound]
decrease of plasma membrane-associated fluorescence signal [1, 3]: 15%
decrease of plasma membrane-associated fluorescence signal [1, 4]: 30%
decrease of fluorescence in the presence of EDTA upon stimulation with OGs ([1]; 100 μg/ml OGs, 5 mM EDTA): No decrease of fluorescence
internalization after stimulation with flg22 ([2]; 10 μM flg22, 30 min): Neither FLS2 nor TMC underwent internalization

eJMC: chimera (Arg806FLS2-Val650EFR): LRR and eJM domains of FLS2 fused upstream of TM, iJM and kinase domains of EFR, GFP-fused
fluorescence variation upon treatment with elfl8 [1]: did not induce any significant fluorescence variation
decrease of plasma membrane-associated fluorescence signal [1, 3]: 25%
decrease of plasma membrane-associated fluorescence signal [1, 4]: 40%
fluorescence variation upon treatment with OGs ([1]; 100 μg/ml OGs): did not induce any significant fluorescence variation
fluorescence decrease after stimulation with flg22 ([2]; 10 μM flg22, after 20 min): 25%
fluorescence decrease after stimulation with flg22 ([2]; 10 μM flg22, after 30 min): 35%

B1: EFR: Arabidopsis LRR receptor kinase Elongation Factor Tu Receptor (AT5G20480); GFP-fused control (protein)
chain: RFSNETDMQALLEFKSQVSENNKREVLASWNHSSPFCNWIGVTCGRRRERVISLNLGGFKLTGVISPSIGNLSFLRLLNLADNSFGSTIPQKVGRLFRLQYLNMSYNLLEGRIPSSLSNCSRLSTVDLSSNHLGHGVPSELGSLSKLAILDLSKNNLTGNFPASLGNLTSLQKLDFAYNQMRGEIPDEVARLTQMVFFQIALNSFSGGFPPALYNISSLESLSLADNSFSGNLRADFGYLLPNLRRLLLGTNQFTGAIPKTLANISSLERFDISSNYLSGSIPLSFGKLRNLWWLGIRNNSLGNNSSSGLEFIGAVANCTQLEYLDVGYNRLGGELPASIANLSTTLTSLFLGQNLISGTIPHDIGNLVSLQELSLETNMLSGELPVSFGKLLNLQVVDLYSNAISGEIPSYFGNMTRLQKLHLNSNSFHGRIPQSLGRCRYLLDLWMDTNRLNGTIPQEILQIPSLAYIDLSNNFLTGHFPEEVGKLELLVGLGASYNKLSGKMPQAIGGCLSMEFLFMQGNSFDGAIPDISRLVSLKNVDFSNNNLSGRIPRYLASLPSLRNLNLSMNKFEGRVPTTGVFRNATAVSVFGNTNICGGVREMQLKPCIVQASPRKRKPLSVRKKVVSGICIGIASLLLIIIVASLCWFMKRKKKNNASDGNPSDSTTLGMFHEKVSYEELHSATSRFSSTNLIGSGNFGNVFKGLLGPENKLVAVKVLNLLKHGATKSFMAECETFKGIRHRNLVKLITVCSSLDSEGNDFRALVYEFMPKGSLDMWLQLEDLERVNDHSRSLTPAEKLNIAIDVASALEYLHVHCHDPVAHCDIKPSNILLDDDLTAHVSDFGLAQLLYKYDRESFLNQFSSAGVRGTIGYAAPEYGMGGQPSIQGDVYSFGILLLEMFSGKKPTDESFAGDYNLHSYTKSILSGCTSSGGSNAIDEGLRLVLQVGIKCSEEYPRDRMRTDEAVRELISIRSKFFSSKTTITESPRDAPQSSPQEWMLNTDMHTM
fluorescence variation upon treatment with elfl8 [1]: no significant decrease of fluorescence
internalization response upon stimulation with elfl8 ([2]; 10 μM elfl8, 30 min): no response

B2: WEG: chimeric receptor: WAK1 ectodomain fused to the TM-iJM-kinase portion of EFR, GFP-fused (protein)
chain: QHQPGENCQNKCGNITIEYPFGISSGCYYPGNESFSITCKEDRPHVLSDIEVANFNHSGQLQVLLNRSSTCYDEQGKKTEEDSSFTLENLSLSANNKLTAVGCNALSLLDTFGMQNYSTACLSLCDSPPEADGECNGRGCCRVDVSAPLDSYTFETTSGRIKHMTSFHDFSPCTYAFLVEDDKFNFSSTEDLLNLRNVMRFPVLLDWSVGNQTCEQVGSTSICGGNSTCLDSTPRNGYICRCNEGFDGNPYLSAGCQDVNECTTSSTIHRHNCSDPKTCRNKVGGFYCKCQSGYRLDTTTMSCKRKEVVSGICIGIASLLLIIIVASLCWFMKRKKKNNASDGNPSDSTTLGMFHEKVSYEELHSATSRFSSTNLIGSGNFGNVFKGLLGPENKLVAVKVLNLLKHGATKSFMAECETFKGIRHRNLVKLITVCSSLDSEGNDFRALVYEFMPKGSLDMWLQLEDLERVNDHSRSLTPAEKLNIAIDVASALEYLHVHCHDPVAHCDIKPSNILLDDDLTAHVSDFGLAQLLYKYDRESFLNQFSSAGVRGTIGYAAPEYGMGGQPSIQGDVYSFGILLLEMFSGKKPTDESFAGDYNLHSYTKSILSGCTSSGGSNAIDEGLRLVLQVGIKCSEEYPRDRMRTDEAVRELISIRSKFFSSKTTITESPRDAPQSSPQEWMLNTDMHTM
modifications: left off: large carriers
decrease of fluorescence in the presence of EDTA upon stimulation with flg22 ([1]; 10 μM flg22, 5 mM EDTA): No decrease of fluorescence
internalization in the presence of EDTA upon stimulation with oligomannuronides (OMs) ([1]; 100 μg/mL OMs, EDTA): did not occur
internalization in the presence of EDTA upon stimulation with 3-6 OGs ([1]; 100 μg/ml 3-6 OGs, EDTA): did not occur
fluorescence variation upon treatment with OGs ([1]; 100 μg/ml OGs): No decrease of the plasma membrane-associated fluorescence
decrease of fluorescence from the cell membrane ([1]; after 20 min): 15%
decrease of fluorescence from the cell membrane ([1]; after 30 min): 25%
